Patent publication US9492471B2, “Methods of treating a disease or disorder associated with Bruton'S Tyrosine Kinase” (Celgene Avilomics Research, Inc., priority 2013, dated 2016)
Read-outs that look alike come from different tables or passages of the source.

Columns and labels:
Assay in all cases: HotSpot kinase profiling
Assay type in all cases: biochemical
CK2a2 = target: T1, CK2a2 (Homo sapiens, UniProt P19784)
T1 construct: purchased Reaction Biology Corp
Summary of the method: (§1)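 Percent inhibition, averaged when run more than once and referenced to a DMSO negative control, came from a radioactive filter-binding readout on P81 paper. Reactions of kinase with freshly made substrate and cofactors ran for 2 h at room temperature.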

FGFR3 = target: T2, FGFR3 (Homo sapiens, UniProt P22607)
T2 construct: purchased Reaction Biology Corp
T2 sequence (P22607 23-806): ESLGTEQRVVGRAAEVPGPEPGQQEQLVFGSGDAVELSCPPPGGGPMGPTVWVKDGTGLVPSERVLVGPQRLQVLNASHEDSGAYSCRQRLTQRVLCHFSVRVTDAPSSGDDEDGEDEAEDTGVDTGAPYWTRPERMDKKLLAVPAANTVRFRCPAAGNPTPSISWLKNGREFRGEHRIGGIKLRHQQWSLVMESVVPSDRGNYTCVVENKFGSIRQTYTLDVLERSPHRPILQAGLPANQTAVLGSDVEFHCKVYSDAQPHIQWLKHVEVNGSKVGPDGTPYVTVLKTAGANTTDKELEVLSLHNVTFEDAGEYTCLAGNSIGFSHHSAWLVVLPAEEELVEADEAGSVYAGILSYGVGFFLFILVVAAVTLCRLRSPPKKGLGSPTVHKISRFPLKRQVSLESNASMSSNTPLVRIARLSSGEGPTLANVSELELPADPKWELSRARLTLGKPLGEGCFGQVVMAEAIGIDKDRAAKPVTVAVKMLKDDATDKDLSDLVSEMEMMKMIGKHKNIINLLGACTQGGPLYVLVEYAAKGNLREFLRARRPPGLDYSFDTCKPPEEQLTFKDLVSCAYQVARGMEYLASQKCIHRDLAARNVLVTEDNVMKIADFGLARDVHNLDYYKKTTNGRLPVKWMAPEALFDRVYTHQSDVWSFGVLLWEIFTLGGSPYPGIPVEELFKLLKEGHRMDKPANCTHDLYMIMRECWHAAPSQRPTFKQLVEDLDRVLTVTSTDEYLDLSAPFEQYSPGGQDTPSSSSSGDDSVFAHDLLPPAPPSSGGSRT
Summary of the method: as §1

RSK2 = target: T3, RSK2 (Homo sapiens, UniProt P51812)
T3 construct: purchased Reaction Biology Corp
T3 sequence (P51812 whole entry): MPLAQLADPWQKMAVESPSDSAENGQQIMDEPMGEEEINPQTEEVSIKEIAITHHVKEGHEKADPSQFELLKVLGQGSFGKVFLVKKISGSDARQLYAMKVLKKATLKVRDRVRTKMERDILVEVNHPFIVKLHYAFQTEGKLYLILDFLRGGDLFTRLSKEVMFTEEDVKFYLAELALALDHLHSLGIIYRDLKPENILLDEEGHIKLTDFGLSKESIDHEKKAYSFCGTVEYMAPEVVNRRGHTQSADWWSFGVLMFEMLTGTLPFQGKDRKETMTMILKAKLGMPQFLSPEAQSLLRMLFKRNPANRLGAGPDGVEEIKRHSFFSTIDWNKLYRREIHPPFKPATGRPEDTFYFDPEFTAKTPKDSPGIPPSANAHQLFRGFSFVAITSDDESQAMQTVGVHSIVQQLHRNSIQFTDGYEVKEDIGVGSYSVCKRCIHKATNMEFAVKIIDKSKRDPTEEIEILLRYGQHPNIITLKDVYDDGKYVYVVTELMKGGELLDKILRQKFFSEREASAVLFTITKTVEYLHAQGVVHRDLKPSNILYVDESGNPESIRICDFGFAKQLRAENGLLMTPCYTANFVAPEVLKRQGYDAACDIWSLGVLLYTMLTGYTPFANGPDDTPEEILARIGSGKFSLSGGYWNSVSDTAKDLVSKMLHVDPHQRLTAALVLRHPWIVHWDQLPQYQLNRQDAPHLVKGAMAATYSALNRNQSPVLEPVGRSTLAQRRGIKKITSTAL
Summary of the method: as §1

GRK2 = target: T4, GRK2 (Homo sapiens, UniProt P25098)
T4 construct: purchased Reaction Biology Corp
T4 sequence (P25098 1-689): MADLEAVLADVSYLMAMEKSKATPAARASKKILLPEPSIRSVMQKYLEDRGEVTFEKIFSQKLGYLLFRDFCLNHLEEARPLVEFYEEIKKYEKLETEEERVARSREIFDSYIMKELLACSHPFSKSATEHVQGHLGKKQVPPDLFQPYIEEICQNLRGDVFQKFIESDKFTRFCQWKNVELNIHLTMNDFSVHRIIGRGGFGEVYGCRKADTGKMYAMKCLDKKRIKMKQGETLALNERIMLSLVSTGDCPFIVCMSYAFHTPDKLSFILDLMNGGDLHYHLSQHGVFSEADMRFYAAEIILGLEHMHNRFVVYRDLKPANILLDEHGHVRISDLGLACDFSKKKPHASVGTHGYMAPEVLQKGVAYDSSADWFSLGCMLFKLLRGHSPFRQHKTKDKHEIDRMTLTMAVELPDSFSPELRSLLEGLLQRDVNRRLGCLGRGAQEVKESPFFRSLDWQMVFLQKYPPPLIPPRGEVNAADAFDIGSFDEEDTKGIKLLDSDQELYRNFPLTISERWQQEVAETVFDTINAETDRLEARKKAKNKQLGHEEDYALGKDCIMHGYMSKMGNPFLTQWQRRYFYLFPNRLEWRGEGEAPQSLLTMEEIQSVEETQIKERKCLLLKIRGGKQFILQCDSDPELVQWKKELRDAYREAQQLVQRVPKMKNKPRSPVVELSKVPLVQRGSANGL
Summary of the method: as §1

ERK7/MAPK15 = target: T5, ERK7/MAPK15 (Homo sapiens, UniProt Q8TD08)
T5 construct: purchased Reaction Biology Corp
T5 sequence (Q8TD08 1-544): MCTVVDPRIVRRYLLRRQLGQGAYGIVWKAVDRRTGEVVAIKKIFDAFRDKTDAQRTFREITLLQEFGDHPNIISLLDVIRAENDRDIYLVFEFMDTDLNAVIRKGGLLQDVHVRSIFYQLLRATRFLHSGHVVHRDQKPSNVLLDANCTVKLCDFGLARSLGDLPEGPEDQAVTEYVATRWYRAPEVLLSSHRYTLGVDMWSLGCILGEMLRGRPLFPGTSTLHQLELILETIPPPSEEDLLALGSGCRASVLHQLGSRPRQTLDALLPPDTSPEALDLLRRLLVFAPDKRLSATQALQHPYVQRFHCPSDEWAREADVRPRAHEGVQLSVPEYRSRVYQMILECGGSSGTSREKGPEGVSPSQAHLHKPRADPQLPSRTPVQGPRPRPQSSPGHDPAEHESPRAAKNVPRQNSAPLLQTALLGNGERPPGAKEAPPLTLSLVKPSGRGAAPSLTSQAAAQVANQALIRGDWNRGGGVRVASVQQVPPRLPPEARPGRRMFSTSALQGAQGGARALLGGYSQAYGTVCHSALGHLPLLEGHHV
Summary of the method: as §1

TLK1 = target: T6, TLK1 (Homo sapiens, UniProt Q9UKI8)
T6 construct: purchased Reaction Biology Corp
T6 sequence (Q9UKI8 1-766): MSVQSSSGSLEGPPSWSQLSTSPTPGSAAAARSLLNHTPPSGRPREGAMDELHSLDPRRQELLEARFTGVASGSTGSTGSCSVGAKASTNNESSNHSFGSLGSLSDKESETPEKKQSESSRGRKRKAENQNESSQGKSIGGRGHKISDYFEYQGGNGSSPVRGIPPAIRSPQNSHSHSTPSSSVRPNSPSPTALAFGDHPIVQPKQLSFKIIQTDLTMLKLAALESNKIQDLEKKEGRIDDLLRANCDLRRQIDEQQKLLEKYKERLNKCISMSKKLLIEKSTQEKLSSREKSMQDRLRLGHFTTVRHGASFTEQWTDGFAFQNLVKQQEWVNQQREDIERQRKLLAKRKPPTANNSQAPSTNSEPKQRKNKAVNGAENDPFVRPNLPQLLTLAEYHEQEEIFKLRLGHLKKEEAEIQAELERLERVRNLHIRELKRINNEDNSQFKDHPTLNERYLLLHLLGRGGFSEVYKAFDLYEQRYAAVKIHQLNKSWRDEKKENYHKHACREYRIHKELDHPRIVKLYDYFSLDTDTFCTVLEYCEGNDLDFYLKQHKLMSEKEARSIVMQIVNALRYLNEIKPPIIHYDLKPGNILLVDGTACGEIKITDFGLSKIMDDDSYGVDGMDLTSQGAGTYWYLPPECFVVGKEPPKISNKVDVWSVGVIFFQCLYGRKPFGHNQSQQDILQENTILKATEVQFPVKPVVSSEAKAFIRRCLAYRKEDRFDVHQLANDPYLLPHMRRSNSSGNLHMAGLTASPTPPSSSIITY
Summary of the method: as §1

[1] = read-out: % Enzyme Activity (relative to DMSO controls) Run 1
[2] = read-out: % Enzyme Activity (relative to DMSO controls) Run 2

T1 sequence (P19784 whole entry): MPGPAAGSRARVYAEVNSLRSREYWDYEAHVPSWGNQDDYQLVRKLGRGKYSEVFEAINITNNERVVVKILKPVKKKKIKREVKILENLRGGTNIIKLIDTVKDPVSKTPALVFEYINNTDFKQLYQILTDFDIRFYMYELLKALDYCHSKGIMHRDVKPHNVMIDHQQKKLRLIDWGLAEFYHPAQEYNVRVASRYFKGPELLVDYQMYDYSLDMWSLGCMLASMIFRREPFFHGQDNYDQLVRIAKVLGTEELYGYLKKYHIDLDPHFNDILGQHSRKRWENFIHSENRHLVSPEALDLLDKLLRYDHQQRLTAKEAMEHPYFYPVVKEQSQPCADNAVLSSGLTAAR

`C=CC(=O)Nc1cccc(Nc2nc(Nc3ccc(OCCOC)c(F)c3)ncc2F)c1` [Compound 2] gave an inhibition at 3 µM (CK2a2) of -1.81%, a remaining activity at 3 µM (CK2a2; [1]) of 98.2% and a remaining activity at 3 µM (CK2a2; [2]) of 105%. For the same molecule, the inhibition at 3 µM (FGFR3) was 68%, the remaining activity at 3 µM (FGFR3; [1]) was 32.1% and the remaining activity at 3 µM (FGFR3; [2]) was 31.8%. It also gave an inhibition at 3 µM (RSK2) of 16.6%, a remaining activity at 3 µM (RSK2; [1]) of 82.6% and a remaining activity at 3 µM (RSK2; [2]) of 84.3%. For the same molecule, the inhibition at 3 µM (GRK2) was -4.03%, the remaining activity at 3 µM (GRK2; [1]) was 104% and the remaining activity at 3 µM (GRK2; [2]) was 104%. The inhibition at 3 µM (ERK7/MAPK15) was 35.1%, the remaining activity at 3 µM (ERK7/MAPK15; [1]) was 63.8% and the remaining activity at 3 µM (ERK7/MAPK15; [2]) was 66%. It also gave an inhibition at 3 µM (TLK1) of -2.91%, a remaining activity at 3 µM (TLK1; [1]) of 102% and a remaining activity at 3 µM (TLK1; [2]) of 103%.
